This note sets out measurements from US5397705A, “Multiply mutated subtilisins” (Amgen Inc., priority 1992, dated 1995).

Assay in all cases: Kinetics of hydrolysis of succinyl Ala-Ala-Pro-Phe-para-nitroanilide by the subtilisin analog
Series [1] deals with T1, Bacillus subtilis aprA subtilisin analog [Asp^76, Ser^109, Ser^218, Ala^222] (Asn76Asp, Asn109Ser, Asn218Ser, Met222Ala) (Bacillus subtilis, UniProt P04189, M328A/N182D/N215S/N324S).
T1 construct: made in house; host or cells: Bacillus host cells (plasmid pAMB143)
T1 sequence (P04189 107-381 N182D/N215S/N324S/M328A): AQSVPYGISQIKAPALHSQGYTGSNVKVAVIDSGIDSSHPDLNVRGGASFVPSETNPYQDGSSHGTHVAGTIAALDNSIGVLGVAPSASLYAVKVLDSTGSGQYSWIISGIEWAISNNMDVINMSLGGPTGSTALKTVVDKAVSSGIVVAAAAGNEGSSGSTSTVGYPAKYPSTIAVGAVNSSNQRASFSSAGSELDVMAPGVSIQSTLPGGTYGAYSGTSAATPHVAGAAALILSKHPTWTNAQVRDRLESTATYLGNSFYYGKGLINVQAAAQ
Type of series: biochemical. Particulars: substrate succinyl Ala-Ala-Pro-Phe-para-nitroanilide. The source says:
(§1) As mentioned earlier, analog [Asp^76, Ser^109, Ser^218, Ala^222 ] has a lower specific activity toward azocasein than analog [Asp^76, Ser^109, Ser^218 ], with an approximate Vm of 0.02 dA/(min-mg/ml) versus 0.08 dA/(min-mg/ml) for [Asp^76, Ser^109, Ser^218 ]. To see if this decreased activity was specific for azocasein, or a general characteristic of the [Asp^76, Ser^109, Ser^218, Ala^222 ] analog, the kinetics of the hydrolysis of the artificial peptide succinyl Ala-Ala-Pro-Phe-para-nitroanilide was analyzed for [Asp^76, Ser^109, Ser^218, Ala^222 ] and [Asp^76, Set^109, Ser^218 ]. […] This specific activity is 4-fold less than that of aprA-subtilisin. The catalytic Ser is at position 221, and it appears that substitutions at position 222 interfere with substrate binding as well as with the rate limiting step of proteolysis.

Series [2] has as its target T2, Bacillus subtilis aprA subtilisin analog [Asp^76, Ser^109, Ser^218] (Asn76Asp, Asn109Ser, Asn218Ser) (Bacillus subtilis, UniProt P04189, N182D/N215S/N324S).
T2 construct: made in house; host or cells: Bacillus subtilis (plasmid pAMB131)
T2 sequence (P04189 107-381 N182D/N215S/N324S): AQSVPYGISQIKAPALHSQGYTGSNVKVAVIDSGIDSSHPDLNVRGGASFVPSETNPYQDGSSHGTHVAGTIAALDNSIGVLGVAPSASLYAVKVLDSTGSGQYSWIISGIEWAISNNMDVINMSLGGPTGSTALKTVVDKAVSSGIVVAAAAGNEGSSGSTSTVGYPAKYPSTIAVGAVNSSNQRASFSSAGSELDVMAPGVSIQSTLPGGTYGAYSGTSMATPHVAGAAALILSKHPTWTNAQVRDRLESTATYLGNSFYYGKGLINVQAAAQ
In kind it is biochemical. To be noted: substrate succinyl Ala-Ala-Pro-Phe-para-nitroanilide.
Excerpt: as §1

Substrate in series [3]: C[C@H](NC(=O)CCC(=O)O)C(=O)N[C@@H](C)C(=O)N1CCC[C@H]1C(=O)N[C@@H](Cc1ccccc1)C(=O)Nc1ccc([N+](=O)[O-])cc1
Type of series: biochemical, Bacillus subtilis. Particulars: other: substrate succinyl Ala-Ala-Pro-Phe-para-nitroanilide.
Excerpt: as §1

Where a SMILES comes first, the peptide text is derived from it.

As for `C[C@H](NC(=O)CCC(=O)O)C(=O)N[C@@H](C)C(=O)N1CCC[C@H]1C(=O)N[C@@H](Cc1ccccc1)C(=O)Nc1ccc([N+](=O)[O-])cc1` [succinyl-L-alanyl-L-alanyl-L-prolyl-L-phenylalanyl-p-nitroanilide] (HELM PEPTIDE1{[O=C(O)CCC(=O)[*:2]].A.A.P.F.[O=[N+]([O-])c1ccc(N[*:1])cc1]}$$$$V2.0), the Vmax in series [1] is given as 1.1 dA/(min-nmole); in series [2] it was 7.9 dA/(min-nmole).

B1: Bacillus subtilis aprA subtilisin analog [Asp^76, Ser^109, Ser^218] (Asn76Asp, Asn109Ser, Asn218Ser) (Bacillus subtilis subsp. subtilis str. 168; … (protein)
chain: AQSVPYGISQIKAPALHSQGYTGSNVKVAVIDSGIDSSHPDLNVRGGASFVPSETNPYQDGSSHGTHVAGTIAALDNSIGVLGVAPSASLYAVKVLDSTGSGQYSWIISGIEWAISNNMDVINMSLGGPTGSTALKTVVDKAVSSGIVVAAAAGNEGSSGSTSTVGYPAKYPSTIAVGAVNSSNQRASFSSAGSELDVMAPGVSIQSTLPGGTYGAYSGTSMATPHVAGAAALILSKHPTWTNAQVRDRLESTATYLGNSFYYGKGLINVQAAAQ
notes: made in house; host or cells: Bacillus subtilis (plasmid pAMB131)
What is called Km is the substrate concentration at which the rate is half of its maximum. Turning to B1, the Km in series [3] (analog [Asp^76, Ser^109, Ser^218]) was found to be 440 µM.

B2: Bacillus subtilis aprA subtilisin analog [Asp^76, Ser^109, Ser^218, Ala^222] (Asn76Asp, Asn109Ser, Asn218Ser, Met222Ala) (Bacillus subtilis subsp. subtilis … (protein)
chain: AQSVPYGISQIKAPALHSQGYTGSNVKVAVIDSGIDSSHPDLNVRGGASFVPSETNPYQDGSSHGTHVAGTIAALDNSIGVLGVAPSASLYAVKVLDSTGSGQYSWIISGIEWAISNNMDVINMSLGGPTGSTALKTVVDKAVSSGIVVAAAAGNEGSSGSTSTVGYPAKYPSTIAVGAVNSSNQRASFSSAGSELDVMAPGVSIQSTLPGGTYGAYSGTSAATPHVAGAAALILSKHPTWTNAQVRDRLESTATYLGNSFYYGKGLINVQAAAQ
notes: made in house; host or cells: Bacillus host cells (plasmid pAMB143)
For the molecule B2, the Km in series [3] (analog [Asp^76, Ser^109, Ser^218, Ala^222]) was 1400 µM.
